Tests used:
293T cells = assay: SeAP reporter assay: iC9 without FRB-Caspase-9 (controls); format: cell-based; conditions: iC9 with control vector or FRB without caspase fusion
Source text: (FIGS. 39 and 40). iC9 (FKBPv12-Caspase-9) was cotransfected with a control vector expressing only an epitope tag (FIG. 39) or a vector containing FRB without caspase fusion, but instead with a short, irrelevant tag (FIG. 40).
FIG. 39—FRB-Caspase-9 is required for a rapamycin-induced cell death switch. 293T cells were transfected with SRα-SeAP (pBP0046), pS-NLS-E and pSH1-FKBPv12-Caspase9 (pBP0044).
FIG. 40—Caspase-9 fusion with FRB is required for a rapamycin-induced cell death switch. 293T cells were transfected with SRα-SeAP (pBP0046), pSH1-FRBL-VP16 (pBP0731) (4) and pSH1-FKBPv12-Caspase9 (pBP0044). […] Loss of reporter activity is a proxy for the loss of cell viability. Reporter activity is expressed as a percentage of the average of 8 wells containing no drug. Drug-containing wells were assayed in triplicate wells.

Raji-GFP cells = assay: Raji-GFP coculture with CD19 CAR-T cells (flow cytometry); format: cell-based, human; conditions: 2 nM, E:T 1:5, seven days
Method: After seven days of incubation the live cells were analyzed for the proportion of GFP labeled tumor cells (left) and for the proportion of total T cells (CD3^+, right) and transduced CAR-T cells (CD34, not shown).
Raji cells (ATCC) labeled by stable expression of Green Fluorescent Protein (Raji-GFP) are a Burkitt's lymphoma cell line that express CD19 on the cell surface and are a target for an anti-CD19 CAR. 50000 Raji-GFP cells were seeded on a 24 well plate with 10000 CAR-T cells, a 1:5 E:T ratio. Media supernatant was taken at 48 hours for determination of cytokine release by activated CAR-T cells. The degree of tumor killing was determined at 7 days and 14 days by flow cytometry (Galeos, Beckman-Coulter) by the proportion of GFP labeled tumor cells and CD3 labeled T cells.

T cells expressing iC9 = assay: T cell killing assay with caspase 3/7 green reagent monitored by IncuCyte, iC9; format: cell-based, human; conditions: increasing doses, PBMCs from 3 donors, FIG. 108B
Source text: To determine the functionality of these switches in activated T cells, retroviral supernatants were produced and transduced into PBMCs activated from 3 separate donors.

[1] = system: iRmC9 T cells (pBP1327, GFP-Fluc); assay: In vivo apoptotic activation in NSG mice, iRmC9 T cells (IVIS imaging, spleen FACS); design: species or system mouse; conditions: 5 mg/kg rimiducid or 10 mg/kg rapamycin i.p.
Method: PBMCs from donor 676 were activated and co-transduced with one of the off-switches and GFP-Fluc retroviruses. Eleven days after transduction, cells were analyzed for transduction efficiency with GFP and anti-CD3/anti-CD19 antibodies (FIG. 109A). […] The CD19^+ MFI for the different T cell populations were: iC9=15.07, iRC9=14.38, and iRmC9=13.39. The cells were collected, counted, washed, and resuspended at 1×10^6 cells in 100 μl PBS for each tail vein mouse injection (Table 10) (time=−18 hr). […] IVIS imaging was performed at −14, 0, 5, 24 and 29 hours. Mice were sacrificed and spleens were collected for FACS analysis with hCD3, hCD19 and mCD45 antibodies. […] The higher percentage of remaining iRmC9 T cells observed may be due to an artifact of normalizing the no drug group.
PBMCs from donor 676 were activated and co-transduced with retroviruses encoding the pBP0220, 1310, 1327 vectors and the GFP-Fluc plasmid. (FIG. 109A) Eleven days post transduction, the cells were analyzed for CD19 and GFP transduction efficiency prior to injection into mice. (FIGS. 109B & C) NSG mice were injected i.v. with 107 T cells co-transduced with GFP-Fluc per mouse and suicide drugs were injected i.p. the next day. Bioluminescence of cells was assessed at −14, 0, 5, 24, and 29 hours post-drug administration. (FIG. 109D) At 29-h post-drug treatment, mice were euthanized and spleens were collected for flow cytometry analysis with antibodies to hCD3, […], and mCD45

[2] = system: iRmC9 T cells (pBP1327, GFP-Fluc); assay: Drug titration of rimiducid and rapamycin in mice bearing iRmC9 T cells; format: in vivo, mouse; conditions: NSG mice; rimiducid 0.00005-5 mg/kg or rapamycin 0.0001-10 mg/kg i.p.; FIGS. 110B & C
Method: In this experiment, iRmC9 T cells were produced by co-transduction with pBP1327 and GFP-Fluc retroviruses from donor 584. […] Ten million iRmC9 T cells were injected IV per mouse (Table 10) (time=−14 hr). […] Vehicle groups received either PBS, 25% solutol in PBS or 5% DMA in PT. IVIS imaging was performed at −10, 0, 6, and 24 hours. Mice were sacrificed and spleens were collected for FACS analysis with hCD3, hCD19 and mCD45 antibodies. […] This observation is similar to that observed in the previous experiment (FIG. 109B) and could be due to the components of the PT.
FIG. 110. […] PBMCs from donor 584 were activated and co-transduced with retroviruses encoding the pBP1327 vector and the GFP-Fluc plasmid. (FIG. 110A) Ten days post-transduction, the cells were analyzed for CD19 and GFP transduction efficiency prior to injection into mice. (FIGS. 110B & C) NSG mice were injected i.v. with 1×10^7 T cells co-transduced with GFP-Fluc per mouse and suicide drugs were injected i.p. the next day. Bioluminescence of cells was assessed at −10, 0, 6, and 24 hours post drug administration. (FIG. 110D) At 24 h post-drug treatment, mice were euthanized and spleens were collected for flow cytometry analysis with antibodies to hCD3, […], and mCD45.

CC[C@H](C(=O)N1CCCC[C@H]1C(=O)O[C@H](CCc1ccc(OC)c(OC)c1)c1cccc(OCC(=O)NCCNC(=O)COc2cccc([C@@H](CCc3ccc(OC)c(OC)c3)OC(=O)[C@@H]3CCCCN3C(=O)[C@@H](CC)c3cc(OC)c(OC)c(OC)c3)c2)c1)c1cc(OC)c(OC)c(OC)c1 [rimiducid]
cell death (loss of SeAP reporter) without FRB-Caspase-9 (293T cells): effectively permitted homodimerization and induction of Caspase-9
CAR-T cells with i9+CARζ+MC or FRBFwtMC/FvC9 (Raji-GFP cells): caused cell death
activation of iC9 in T cells (caspase 3/7) (T cells expressing iC9): can activate
iRmC9 T cells remained in splenocytes (normalized to no drug group) ([1]; spleen FACS, FIG. 109D): ~50%
removal of iRmC9 T cells (IVIS imaging) ([1]; NSG mice, FIGS. 109B & C): induced significant removal
IVIS imaging of iRmC9 T cells in dose titration [2]: dose-dependent removal

Reference: patent US20230065562A1, “DUAL CONTROLS FOR THERAPEUTIC CELL ACTIVATION OR ELIMINATION” (Bellicum Pharmaceuticals, Inc., priority 2015, published 2023)
